Measurements taken from US9468670B2, “Melatonin-based treatment and diagnosis of bile duct disease” (Texas A&M University System, priority 2011, dated 2016).

Key:
CLOCK gene = experiment: CLOCK expression by qPCR in CCA lines after melatonin; format: cell-based, human; conditions: melatonin 10-11 M for 48 hours
Experimental: Methods: Melatonin immunoreactivity, the expression of melatonin biosynthesis enzymes and receptors were assessed by immunohistochemistry in tissue arrays from normal and CCA patients, and by qPCR and immunoblots in intra-hepatic and extra-hepatic CCA cell lines, and a normal cholangiocyte line (H69). Proliferation was evaluated in vitro by MTS assay in CCA lines and H69 after treatment with melatonin (10-7 to 10-11 M, 24-72 hours). In parallel, the expression of CLOCK after melatonin treatment (10-11 M for 48 hours) was assessed in CCA lines and normal cholangiocytes by qPCR.

[1] = tested on: large mouse cholangiocyte lines; experiment: cAMP levels (RIA) in large mouse cholangiocyte lines; format: cell-based; conditions: melatonin 10^−11 M for 5 minutes
Text: (§1) The expression of MT1 and MT2 receptors in immortalized large cholangiocytes was first evaluated by immunofluorescence (Francis et al., 2008). Images were visualized using an Olympus IX-71 confocal microscope. For all immunoreactions, negative controls (with normal serum from the same species substituted for the primary antibody) were included. It was next evaluated by commercially available radioimmunoassay (RIA) kits ([…] et al., 1998; Kato et al., 1992; […] et al., 1999; […] et al., 2004) for cAMP levels ([…] et al., 1998; Kato et al., 1992; […] Shiu et al., 2010). […] […] et al., 1992; Ramirez-Rodriguez et al., 2009; […], 1999). […] Shiu et al., 2010) before evaluating by immunoblots (Francis et al., 2008) the expression of PCNA and the phosphorylation of PKA and EKR1/2.

large cholangiocytes = experiment: Bile duct mass, PCNA-positive cholangiocytes and apoptosis (TUNEL) in liver sections; format: in vivo, rat
Experimental: Male 344 Fischer rats (150-175 g) were purchased from Charles River (Wilmington, Mass.) and kept in a temperature-controlled environment (22° C.) with 12:12 hr light/dark cycles. Animals were fed ad libitum and had free access to food and drinking water. […] Before each surgical procedure, animals were anesthetized with sodium pentobarbital (50 mg/kg BW, IP). All animal experiments were performed in accordance with a protocol approved by the Scott and White and Texas A&M Health Science Center Institutional Animal Care and Use Committee and conform to the Guide for the Care and Use of Laboratory Animals published by the US National Institutes of Health (NIH Publication No. 85-23, revised 1996). In all animals, wet liver weight, body weight, wet liver weight to body weight ratio, and an index of liver cell growth including cholangiocytes were measured ([…] et al., 1988). The following was also evaluated in paraffin-embedded liver sections ([…]): (i) lobular necrosis; (ii) the intrahepatic bile duct mass (IBDM) of large (>[…]) ([…] et al., 1997; Glaser et al., 2009) cholangiocytes, the only biliary cell types proliferating following […] et al., 1998; Glaser et al., 2009) and (iii) the percentage of cholangiocyte apoptosis by semiquantitative terminal deoxynucleotidyltransferase biotin-dUTP nick-end labeling (TUNEL) kit (Apoptag; Chemicon International, Inc.) (Glaser et al., 2010). Lobular necrosis was measured in liver sections stained for hematoxylin and eosin (Glaser et al., 2010). […] The IBDM was measured as area occupied by CK-19 positive-bile duct/total area×100 (Glaser et al., 2010). It was also evaluated by H&E of sections if melatonin administration induces the damage of kidney, heart, stomach, spleen and small and large intestine of normal and BDL rats. The sections from the selected were evaluated in a blinded-fashion by two board-certified pathologists by a BX-51 light microscope (Olympus, Tokyo, Japan) equipped with a camera.

[2] = tested on: large cholangiocyte lines; experiment: PCNA expression and PKA, ERK1/2 phosphorylation (immunoblots) in immortalized large cholangiocytes; format: cell-based, mouse; conditions: melatonin 10^−11 M, 48 hours
Text: as §1

cholangiocytes = experiment: Biliary proliferation (PCNA, IBDM) and apoptosis (TUNEL) in Morpholino-treated rats; format: in vivo, rat; conditions: normal rats, 1 mg/Kg BW/day for 1 week via portal vein catheter
Experimental: In separate experiments, normal rats treated with Vivo-Morpholino sequences of AANAT (5′-[…] (SEQ ID NO:1), to reduce the biliary expression of AANAT) or Morpholino mismatched (5′-[…] (SEQ ID NO:2)) (Gene Tools LCC) (1 mg/Kg BW/day) for 1 week via an implanted portal vein catheter. Serum, liver tissue, cholangiocytes, kidney, spleen, small intestine, stomach and heart were collected. Since our goal was to knock-down AANAT expression in the liver without inhibiting AANAT expression in other organs, we used a lower dose (1 mg/Kg/day) of Vivo-Morpholino than that described in the original study (3.0 mg/kg/day (Arora et al., 2002). This approach minimizes the amount of Vivo-Morpholino that circulates outside of the liver after slow infusion into the portal vein. See below for the surgical procedure for the implantation of the portal vein catheter by which AANAT Vivo-Morpholino or Morpholino mismatched was administered.
Biliary proliferation was determined by measurement of the percentage of PCNA-positive cholangiocytes by immunohistochemistry, and intrahepatic bile duct mass (IBDM) by immunohistochemistry for CK-19 (Mancinelli et al., 2010). Biliary apoptosis was evaluated by semiquantitative terminal deoxynucleotidyltransferase biotin-dUTP nick-end labeling (TUNEL) kit (Chemicon International, Inc., Temecula, Calif.) (Mancinelli et al., 2010). IBDM was determined as the area occupied by CK-19 positive-bile duct/total area×100 (Mancinelli et al., 2010). The morphological changes/damage in liver, spleen, kidney, heart, stomach, and small intestine were evaluated from AANAT Vivo-Morpholino- or mismatch-treated rats by H&E staining. The serum levels of the transaminases, glutamate pyruvate transaminases (SGPT) and glutamic oxaloacetic transaminase (SGOT), alkaline phosphatase (ALP) and total bilirubin were evaluated using a Dimension RxL Max Integrated Chemistry system (Dade Behring Inc., Deerfield Ill.), Chemistry Department, Scott & White.

AANAT = AANAT morpholino in normal rats with or without CCl4 (liver sections, qPCR, immunoblots); format: in vivo, rat
Experimental: Methods: Normal rats were treated for 1 wk with AANAT morpholino (to reduce the biliary expression of AANAT) or scrambled morpholino (1 mg/kg BW/day) by a portal vein catheter before receiving a single dose of mineral oil or CCl4 (0.4 ml by gavage 1:1 in mineral oil/100 gm BW). Two days later, in liver sections the following was evaluated: (i) the hepatic expression of AANAT; and (ii) the percentage of TUNEL-positive cholangiocytes, and IBDM. In total liver tissue, the quantitative expression of AANAT, PCNA, Bax and Bcl-2 was studied by qPCR and immunoblots. In mouse cholangiocyte lines (NMC) stably overexpressing AANAT the expression of AANAT and CLOCK genes, melatonin secretion and biliary growth were studied after 48 hr incubation.

[3] = BDL rats vs. corresponding control rats
[4] = normal rats vs. scrambled morpholino

Compound | Increase in levels of the CLOCK gene in CCA cells (CLOCK gene) [%] | cAMP levels [1] | Cholangiocyte apoptosis (large cholangiocytes; BDL rats) | Large BDM (bile duct mass) (large cholangiocytes; [3]) | Percentage of PCNA-positive large cholangiocytes (large cholangiocytes; [3]) | Effects on bile duct mass, PCNA-positive cholangiocytes and apoptosis (large cholangiocytes; normal rats) | PCNA expression and phosphorylation of PKA and ERK2 (but not ERK1) [2] | % IBDM (cholangiocytes) [%] | % PCNA-positive cholangiocytes (cholangiocytes) [%] | % apoptotic cholangiocytes (cholangiocytes) [%] | AANAT expression in liver tissue (AANAT; [4]) | PCNA expression in liver tissue (AANAT; [4]) | IBDM (AANAT; normal rats, 1 mg/kg BW/day for 1 wk by portal vein catheter, vs. controls) | Biliary apoptosis in response to CCl4 (AANAT; rats, 1 mg/kg BW/day for 1 wk then single dose of CCl4)
COc1ccc2[nH]cc(CCNC(C)=O)c2c1 [melatonin] | ~50 | decreased | enhanced | decreased | decreased | no effects | decreased |  |  |  |  |  |  | 
AANAT Vivo-Morpholino: Vivo-Morpholino sequence of AANAT 5′-GTTCCCCAGCTTTGGAAGTGGTCCC (SEQ ID NO:1), to reduce the biliary expression of AANAT (all phosphorodiamidate morpholino (PMO); Vivo-Morpholino delivery moiety attached, position not given here, further chemistry not fully specified) |  |  |  |  |  |  |  | 0.45 ± 0.10 | 8.98 ± 0.6 | <5 | decreased | increased | enhanced | absence
